Patent US20220273659A1, “HETEROCYCLIC COMPOUNDS AS KINASE INHIBITORS” (NUVATION BIO INC., priority 2019, published 2022)

Legend:
FMS kinase = target: T1, FMS kinase (Homo sapiens, UniProt P07333); experiment: LanthaScreen Eu Kinase Binding Assay (ATP, fluorescent-PolyGT substrate); format: biochemical
T1 construct: purchased Invitrogen (Life Technologies)
Experimental: IC50 values of compounds against FMS kinase were determined by LanthaScreen™ Eu Kinase Binding Assay at Invitrogen (Life Technologies Grand Island, N.Y.) where total reaction volume was 10 μL in low-volume 384-well plates (#4511, Corning). Serially diluted compounds (3-fold) were incubated with kinase (1.25 nM) for 10 min, following which a mixture of ATP (10 μM) (#A1852, Sigma, St-Louis, Mo.) and fluorescent-PolyGT substrate (200 nM) (#PV3610, Invitrogen, Life Technologies Grand Island, N.Y.) was added and incubated in dark at room temperature for 1H. After 1H, 10 μL stop solution containing Terbium labeled antibody (4 nM) (#PV3529, Invitrogen, Life Technologies Grand Island, N.Y.) and EDTA (#E5134, Sigma, St-Louis, Mo.) (20 mM) in TR-FRET dilution buffer (#PV3574, Invitrogen, Life Technologies Grand Island, N.Y.) was added. Readings were taken in a Synergy Neo Plate reader (BioTek, Winooski) at single excitation of 340 nm and Dual emission at 495 nm and 520 nm respectively.
The following equations were used for LanthaScreen Eu Kinase Binding Assay Data Analysis. Percent inhibition (100-% activity) was fitted to the “four-parameter logistic model” in XLfit for determination of IC50 values.

PI3Kδ kinase = target: T2, PI3Kδ kinase (Homo sapiens, UniProt O00329); experiment: PI3Kδ kinase assay (ADP-Glo, Reaction Biology); format: biochemical
T2 construct: purchased Reaction Biology Corporation (assay service)
T2 sequence (O00329 whole entry): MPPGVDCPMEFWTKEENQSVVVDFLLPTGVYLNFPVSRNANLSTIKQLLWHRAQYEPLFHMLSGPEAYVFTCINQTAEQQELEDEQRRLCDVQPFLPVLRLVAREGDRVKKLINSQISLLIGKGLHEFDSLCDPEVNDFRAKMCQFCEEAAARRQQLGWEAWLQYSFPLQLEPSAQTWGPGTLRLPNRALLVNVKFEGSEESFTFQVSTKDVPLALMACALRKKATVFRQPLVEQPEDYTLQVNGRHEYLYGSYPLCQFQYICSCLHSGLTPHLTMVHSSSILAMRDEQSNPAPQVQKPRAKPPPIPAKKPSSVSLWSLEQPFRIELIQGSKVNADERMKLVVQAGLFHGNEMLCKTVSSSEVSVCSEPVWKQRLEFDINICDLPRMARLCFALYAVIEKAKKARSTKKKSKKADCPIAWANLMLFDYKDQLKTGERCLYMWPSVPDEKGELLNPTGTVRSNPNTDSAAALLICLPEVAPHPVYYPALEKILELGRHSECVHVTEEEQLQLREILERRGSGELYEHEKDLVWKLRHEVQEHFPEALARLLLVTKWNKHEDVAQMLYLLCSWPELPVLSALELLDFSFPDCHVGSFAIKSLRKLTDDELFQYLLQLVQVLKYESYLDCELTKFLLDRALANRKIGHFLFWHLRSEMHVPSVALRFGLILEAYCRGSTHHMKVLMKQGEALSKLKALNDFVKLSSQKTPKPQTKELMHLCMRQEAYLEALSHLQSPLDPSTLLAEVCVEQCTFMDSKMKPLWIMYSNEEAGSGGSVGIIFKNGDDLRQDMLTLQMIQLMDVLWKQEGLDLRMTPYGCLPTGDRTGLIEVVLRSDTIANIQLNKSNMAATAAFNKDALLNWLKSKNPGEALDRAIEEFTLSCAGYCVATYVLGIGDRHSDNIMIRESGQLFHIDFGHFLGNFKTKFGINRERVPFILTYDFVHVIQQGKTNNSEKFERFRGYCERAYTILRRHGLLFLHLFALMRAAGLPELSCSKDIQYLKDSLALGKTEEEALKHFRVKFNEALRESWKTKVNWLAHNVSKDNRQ
T2 sequence (P27986 whole entry partner): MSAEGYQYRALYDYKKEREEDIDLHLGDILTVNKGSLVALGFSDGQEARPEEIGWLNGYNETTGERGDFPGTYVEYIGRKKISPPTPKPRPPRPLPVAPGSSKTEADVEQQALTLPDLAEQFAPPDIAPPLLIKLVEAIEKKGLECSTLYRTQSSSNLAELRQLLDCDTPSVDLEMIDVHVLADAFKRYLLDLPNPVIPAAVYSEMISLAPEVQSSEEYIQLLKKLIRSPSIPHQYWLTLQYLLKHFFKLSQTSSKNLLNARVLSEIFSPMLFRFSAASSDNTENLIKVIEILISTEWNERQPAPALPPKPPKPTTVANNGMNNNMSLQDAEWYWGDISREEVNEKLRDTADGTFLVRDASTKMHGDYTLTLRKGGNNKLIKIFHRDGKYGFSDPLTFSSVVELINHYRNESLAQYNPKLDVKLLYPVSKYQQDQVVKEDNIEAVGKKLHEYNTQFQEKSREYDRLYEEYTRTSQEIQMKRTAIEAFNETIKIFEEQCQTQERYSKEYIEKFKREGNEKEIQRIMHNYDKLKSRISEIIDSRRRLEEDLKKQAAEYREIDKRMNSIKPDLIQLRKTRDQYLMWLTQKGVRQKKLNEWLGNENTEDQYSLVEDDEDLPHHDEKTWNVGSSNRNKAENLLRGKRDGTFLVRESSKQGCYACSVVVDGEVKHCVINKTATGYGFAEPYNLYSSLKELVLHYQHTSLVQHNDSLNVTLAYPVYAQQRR
Experimental: IC50 values of compounds against the PI3Kδ kinase were determined by an assay performed by Reaction Biology Corporation (Malvern, Pa.). Briefly, this assay was conducted in buffer (Tris-HCl 40 mM (pH7.5), Orthovanadate 3 mM, MgCl2 20 mM, DTT 2 mM, CHAPS 0.05%, DMSO 1%). PI3Kδ kinase was added to the reaction solution and mixed gently. The test compounds in 100% DMSO (at specific solutions) were mixed with the kinase reaction mixture to achieve the final compounds at pre-defined concentrations (e.g., range −0.5 nM to 100 μM) by Acoustic technology (Echo550; nanoliter range). After incubating for 10 min at room temp, ATP was added into the reaction mixture to initiate the reaction followed by a 30-min incubation at 30° C. After quenching the reaction with ADP-Glo reagent, the plates were incubated for 40 min. The Detection Mixture was added, and the plate was incubated for an additional 30 min. At the end of incubation, luminescence was measured. For data analysis, the luminescence was converted into μM ADP production based on ADP standard curves. The nonlinear regression to obtain the standard curve and IC50 values was performed using GraphPad Prism (GraphPad Software, Inc., San Diego, Calif.).

CDK4 = target: T3, CDK4 (Homo sapiens, UniProt P11802); experiment: In vitro kinase inhibition IC50, luminescence (ADP Glo), retinoblastoma substrate; format: biochemical; conditions: read-out: CDK4/D1 IC50
T3 construct: purchased Invitrogen PR8064A
T3 sequence (P11802 whole entry): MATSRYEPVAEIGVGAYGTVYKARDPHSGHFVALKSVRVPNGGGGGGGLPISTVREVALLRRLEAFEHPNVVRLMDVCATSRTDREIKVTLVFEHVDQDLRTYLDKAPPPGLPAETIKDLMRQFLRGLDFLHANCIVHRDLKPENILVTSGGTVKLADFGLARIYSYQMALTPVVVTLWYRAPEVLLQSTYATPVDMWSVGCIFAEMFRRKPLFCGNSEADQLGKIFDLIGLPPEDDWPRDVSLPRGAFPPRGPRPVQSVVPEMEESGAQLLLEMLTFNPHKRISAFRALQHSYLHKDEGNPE
T3 sequence (P24385 whole entry partner): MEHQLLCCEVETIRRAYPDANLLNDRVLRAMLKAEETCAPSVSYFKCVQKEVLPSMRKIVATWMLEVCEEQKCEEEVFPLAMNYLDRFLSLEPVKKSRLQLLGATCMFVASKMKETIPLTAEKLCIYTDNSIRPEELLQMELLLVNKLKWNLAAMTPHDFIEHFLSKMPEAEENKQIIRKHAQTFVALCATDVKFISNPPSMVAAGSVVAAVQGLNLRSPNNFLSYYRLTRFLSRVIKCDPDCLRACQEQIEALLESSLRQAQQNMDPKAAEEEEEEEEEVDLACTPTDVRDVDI
Experimental: (§1) IC50 values of compounds against CDK4 and CDK6 were determined by luminescence using retinoblastoma as substrate. Kinase assays were performed in kinase buffer (#PV6135, Invitrogen Life Technologies, Grand Island, N.Y.) where total reaction volume was […] in 96-well half area white plates (#3693, Costar). One microliter of 25×test compounds at specific concentrations (e.g., final concentration range: 0.1 nM-200 nM) was mixed with 10 μL of 2.5×kinase (5 nM, CDK4 #PR8064A and CDK6 #PR8422B, Invitrogen) solution and 14 μL of 4× mixed solution with retinoblastoma (1 μM, #12-439, EMD Millipore, Hayward, Calif.) and ATP (25 μM, #V7038, Promega, Madison, Wis.). The plates were covered and incubated for 2H at room temperature. At the end of incubation, 25 μL of stop solution—ADP Glo reagent (#V7002, Promega) was added. After incubation for 45 min at room temperature, 50 μL of detection reagent (##V7002, Promega) was added. Readings were taken at 15 min and 45 min incubation after detection reagent was added in a Synergy Neo Plate reader (BioTek, Winooski, Vt.) at single excitation of 340 nm and Dual emission at 495 nm and 520 nm respectively. The following equations were used in the CDK4 and CDK6 assay data analysis. Percent inhibition (100-% activity) was fitted to the “four-parameter logistic model” in XLfit for determination of IC50 values.
(§2) Percent conversion of enzyme=100−{(RLUNo Drug−No enzyme*100)/RLUNo drug+Enzyme} Equation 1:
(§3) Percent conversion at each data point=100−{(RLUAverage(Drug+enzyme)*100)!RLUNo drug+Enzyme} Equation 2:
(§4) Percent Inhibition=100*(% Conversioneach data point/% ConversionEnzyme) Equation 3: […]

CDK6 = target: T4, CDK6 (Homo sapiens, UniProt Q00534); experiment: as above; format: biochemical; conditions: read-out: CDK6/D1 IC50
T4 construct: purchased Invitrogen PR8422B
T4 sequence (Q00534 whole entry): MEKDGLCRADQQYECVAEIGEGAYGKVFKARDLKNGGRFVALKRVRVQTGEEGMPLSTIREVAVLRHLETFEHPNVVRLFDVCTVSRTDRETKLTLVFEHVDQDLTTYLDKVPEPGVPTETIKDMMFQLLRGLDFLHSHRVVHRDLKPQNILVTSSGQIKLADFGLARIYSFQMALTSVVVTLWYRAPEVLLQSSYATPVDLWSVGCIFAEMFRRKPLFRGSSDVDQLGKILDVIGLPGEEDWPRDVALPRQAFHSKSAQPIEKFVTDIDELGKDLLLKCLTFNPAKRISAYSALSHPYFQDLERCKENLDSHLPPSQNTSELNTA
T4 sequence (P24385 whole entry partner): as the sequence (P24385 whole entry partner) above
Experimental: as §1, §2, §3, §4

[1] = test system: MCF-7 breast adenocarcinoma cells; experiment: Cancer cell proliferation assay, single agent (cell viability); format: cell-based; conditions: Homo sapiens, MCF7, Table 4; Rb positive; treatment 144 Hr with medium change at 72 Hr; Cell Titer-Glo or resazurin
Experimental: (§5) The effects of test compounds were studied in three breast cancer cell lines of different subtype. The cancer cells (Table 3) were harvested during the logarithmic growth period and counted. Cell concentrations were adjusted to the appropriate number with respective medium and 90 μL cell suspensions were added to 96-well plates. After cells were seeded, the plates were shaken gently to distribute cells evenly and incubated at 37° C., 5% CO2 on day 1.
(§6) Cells were treated with test compounds at 7 to 9 concentrations within a desired concentration range (e.g. 1.1 nM-10 μM) on day 2 by series diluting the test compound stock solution (10 mM in DMSO) with culture medium. Treatment duration was 24 Hr for BT-549 cells and 144 Hr (with a medium change at 72 Hr) for MCF-7 and DU4475 cells. Cell viability was assessed by Cell Titer-Glo® as recommended by Promega (Cat. No.: G7572), or by resazurin assay (Sigma Aldrich, Cat. No.: R7017) post treatment.
(§7) Cell viability data were plotted using GraphPad Prism (GraphPad Software, Inc., San Diego, Calif.). In addition, a nonlinear regression model with a sigmoidal dose response and variable slope within GraphPad Prism was used to calculate the IC50 value of individual test compounds.

[2] = test system: DU4475 breast carcinoma cells; experiment: as above; format: cell-based; conditions: Homo sapiens, DU-4475; Table 4; Rb negative; treatment 144 Hr with medium change at 72 Hr; Cell Titer-Glo or resazurin
Experimental: as §5, §6, §7

T1 sequence (P07333 20-972): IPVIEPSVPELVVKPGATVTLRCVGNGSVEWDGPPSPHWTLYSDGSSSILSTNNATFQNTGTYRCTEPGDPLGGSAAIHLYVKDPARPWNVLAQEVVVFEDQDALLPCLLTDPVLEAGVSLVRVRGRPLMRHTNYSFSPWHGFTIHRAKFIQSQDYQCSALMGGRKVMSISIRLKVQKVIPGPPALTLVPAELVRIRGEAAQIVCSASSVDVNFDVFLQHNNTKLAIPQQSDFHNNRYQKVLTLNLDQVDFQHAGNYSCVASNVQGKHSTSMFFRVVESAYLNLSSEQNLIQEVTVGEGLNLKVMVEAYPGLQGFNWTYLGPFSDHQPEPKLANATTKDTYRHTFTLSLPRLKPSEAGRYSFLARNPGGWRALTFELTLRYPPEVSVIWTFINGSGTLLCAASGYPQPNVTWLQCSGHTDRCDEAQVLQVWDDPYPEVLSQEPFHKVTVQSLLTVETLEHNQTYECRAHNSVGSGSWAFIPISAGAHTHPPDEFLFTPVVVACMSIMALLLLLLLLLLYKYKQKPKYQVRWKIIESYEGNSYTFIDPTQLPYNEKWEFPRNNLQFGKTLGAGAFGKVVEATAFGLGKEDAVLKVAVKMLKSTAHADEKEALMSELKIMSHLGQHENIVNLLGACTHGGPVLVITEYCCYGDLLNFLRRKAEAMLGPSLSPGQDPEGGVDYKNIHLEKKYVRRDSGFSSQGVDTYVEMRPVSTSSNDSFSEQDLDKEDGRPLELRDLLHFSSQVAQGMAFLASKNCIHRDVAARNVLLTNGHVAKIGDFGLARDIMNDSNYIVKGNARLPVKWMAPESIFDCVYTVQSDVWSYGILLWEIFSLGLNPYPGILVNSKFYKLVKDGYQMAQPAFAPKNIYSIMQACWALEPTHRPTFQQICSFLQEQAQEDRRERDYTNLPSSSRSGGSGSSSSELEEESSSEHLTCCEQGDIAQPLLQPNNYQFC

Row | SMILES | IC50 (FMS kinase) | IC50 (PI3Kδ kinase) | IC50 (CDK4) | IC50 (CDK6) | IC50 [1] | IC50 [2]
1 | N#Cc1cc2cnc(Nc3cccc(S(=O)(=O)N4CCOCC4)c3)nc2n(C2CCCC2)c1=O [Compound No. 20] | 99 nM |  | > 200 nM | > 200 nM | 1050 nM | 
2 | CC1CN(c2ccc(Nc3ncc4cc(C#N)c(=O)n(C5CCCC5)c4n3)nc2)CCN1 (centres unmarked) [Compound No. 23, 8-cyclopentyl-2-((5-(3-methylpiperazin-1-yl)pyridin-2-yl)amino)-7-oxo-7,8-dihydropyrido[2,3-d]pyrimidine-6-carbonitrile] | 53 nM |  | 70.5 nM | 7 nM | 750 nM | 12400 nM
3 | CC1CCN(c2ccc(Nc3ncc4cc(C#N)c(=O)n(C5CCCC5)c4n3)cc2)CC1 [Compound No. 25, 8-cyclopentyl-2-((4-(4-methylpiperidin-1-yl)phenyl)amino)-7-oxo-7,8-dihydropyrido[2,3-d]pyrimidine-6-carbonitrile] | 13 nM |  | > 200 nM | 38 nM | > 30000 nM | 
4 | N#Cc1cc2cnc(Nc3ccc(N4CCNCC4)cc3F)nc2n(C2CCCC2)c1=O [Compound No. 26, 8-cyclopentyl-2-((2-fluoro-4-(piperazin-1-yl)phenyl)amino)-7-oxo-7,8-dihydropyrido[2,3-d]pyrimidine-6-carbonitrile] | 6 nM |  | 42 nM | 6 nM | 533 nM | 
5 | N#Cc1cc2cnc(Nc3cc(F)c(N4CCNCC4)c(F)c3)nc2n(C2CCCC2)c1=O [Compound No. 27, 8-cyclopentyl-2-((3,5-difluoro-4-(piperazin-1-yl)phenyl)amino)-7-oxo-7,8-dihydropyrido[2,3-d]pyrimidine-6-carbonitrile] | 3.5 nM |  | 18 nM | 3.5 nM | 138 nM | 
6 | N#Cc1cc2cnc(Nc3cnn(C4CCC(O)CC4)c3)nc2n(C2CCCC2)c1=O (centres unmarked) [Compound No. 51, 8-cyclopentyl-2-((1-(4-hydroxycyclohexyl)-1H-pyrazol-4-yl)amino)-7-oxo-7,8-dihydropyrido[2,3-d]pyrimidine-6-carbonitrile] | 1 nM |  | 91 nM | 42 nM | 570 nM | 
7 | CN1CCn2nc(Nc3ncc4cc(C#N)c(=O)n(C5CCCC5)c4n3)cc2C1 [Compound No. 52, 8-cyclopentyl-2-((5-methyl-4,5,6,7-tetrahydropyrazolo[1,5-a]pyrazin-2-yl)amino)-7-oxo-7,8-dihydropyrido[2,3-d]pyrimidine-6-carbonitrile] | 6.5 nM |  | 39 nM | 13 nM | 6310 nM | 

The next lines start with the values.

Row | IC50 (FMS kinase) | IC50 (PI3Kδ kinase) | IC50 (CDK4) | IC50 (CDK6) | IC50 [1] | IC50 [2] | SMILES
8 | 8 nM |  |  |  |  |  | C[C@H]1CC[C@H](n2c(=O)c(C#N)cc3cnc(Nc4ccc5c(c4)C(=O)NCC5)nc32)CC1 [Compound No. 7, 8-((1r,4r)-4-methylcyclohexyl)-7-oxo-2-((1-oxo-1,2,3,4-tetrahydroisoquinolin-7-yl)amino)-7,8-dihydropyrido[2,3-d]pyrimidine-6-carbonitrile]
9 |  | 2460 nM |  |  |  |  | CC1(C)CNCc2cc(Nc3ncc4cc(C#N)c(=O)n(C5CCCC5)c4n3)ccc21 [Compound No. 8, 8-cyclopentyl-2-((4,4-dimethyl-1,2,3,4-tetrahydroisoquinolin-7-yl)amino)-7-oxo-7,8-dihydropyrido[2,3-d]pyrimidine-6-carbonitrile]
10 | 7 nM |  | > 200 nM | > 200 nM | 6020 nM |  | CN1CCN(C(=O)c2cccc(Nc3ncc4cc(C#N)c(=O)n(C5CCCC5)c4n3)c2)CC1 [Compound No. 16, 8-cyclopentyl-2-((3-(4-methylpiperazine-1-carbonyl)phenyl)amino)-7-oxo-7,8-dihydropyrido[2,3-d]pyrimidine-6-carbonitrile]
11 | 53 nM |  | > 200 nM | > 200 nM | 3230 nM |  | CN1CCN(S(=O)(=O)c2cccc(Nc3ncc4cc(C#N)c(=O)n(C5CCCC5)c4n3)c2)CC1 [Compound No. 17, 8-cyclopentyl-2-((3-((4-methylpiperazin-1-yl)sulfonyl)phenyl)amino)-7-oxo-7,8-dihydropyrido[2,3-d]pyrimidine-6-carbonitrile]
12 | 74 nM |  | > 200 nM | > 200 nM | 1420 nM |  | N#Cc1cc2cnc(Nc3cccc(S(=O)(=O)N4CCC(O)CC4)c3)nc2n(C2CCCC2)c1=O [Compound No. 18, 8-cyclopentyl-2-((3-((4-hydroxypiperidin-1-yl)sulfonyl)phenyl)amino)-7-oxo-7,8-dihydropyrido[2,3-d]pyrimidine-6-carbonitrile]
13 | < 1 nM |  | 35 nM | 38 nM | 2360 nM |  | N#Cc1cc2cnc(Nc3ccc4c(c3)NC(=O)C4)nc2n(C2CCCC2)c1=O [Compound No. 19, 8-cyclopentyl-7-oxo-2-((2-oxoindolin-6-yl)amino)-7,8-dihydropyrido[2,3-d]pyrimidine-6-carbonitrile]
14 | 5 nM |  | > 200 nM | 35 nM | > 30000 nM |  | N#Cc1cc2cnc(Nc3ccc4c(c3)C(=O)NC4)nc2n(C2CCCC2)c1=O [Compound No. 24, 8-cyclopentyl-7-oxo-2-((3-oxoisoindolin-5-yl)amino)-7,8-dihydropyrido[2,3-d]pyrimidine-6-carbonitrile]
15 |  | 295 nM | 128 nM | 22 nM | 498 nM | 870 nM | CCC(C)n1c(=O)c(C#N)cc2cnc(Nc3ccc4c(c3)CCNC4)nc21 (centres unmarked) [Compound No. 80, 8-(sec-butyl)-7-oxo-2-((1,2,3,4-tetrahydroisoquinolin-6-yl)amino)-7,8-dihydropyrido[2,3-d]pyrimidine-6-carbonitrile]
